Like-named read-outs stand apart in the source and are kept apart here.
How the values were obtained:
[1] = test system: muscarinic acetylcholine receptor (mAChR); assay: Protection of mAChR from inactivation by the endogenous LMW inhibitor, [3H]QNB (antagonist) binding; set-up: species or system human; details: for protection of the mAChR from inactivation by the LMW inhibitor (in words): FIGS. 4-7, 15, 17, 19; for EC50: read-out: concentration that provides 50% protection of the mAChR
[2] = target: muscarinic acetylcholine receptor (mAChR); details: read-out: concentration that provides 50% protection of the mAChR from damage by PbCl2, 3H-QNB binding, FIG. 20
[3] = target: muscarinic acetylcholine receptor (mAChR); assay: Protection of mAChR from inactivation by heme and peroxide, [3H]QNB (antagonist) binding; set-up: species or system human; details: 3H-QNB binding, FIG. 16
[4] = LMW inhibitor, 3H-QNB binding, FIGS. 11, 13, 14

Compound | protection of the mAChR from inactivation by the LMW inhibitor (in words) ([1]; LMW inhibitor, 3H-QNB binding) | EC50 [1, 4] [nM] | other results
Nc1ncnc2c1ncn2[C@@H]1O[C@H](COP(=O)(O)OP(=O)(O)NP(=O)(O)O)[C@@H](O)[C@H]1O [adenylylimidodiphosphate] | protect the mAChR from inactivation | – | –
C=CC1=C(C)/C(=C/C2=NC(=C\c3[nH]c(/C=C4\NC(=O)C(C)=C4C=C)c(C)c3CCC(=O)O)/C(CCC(=O)O)=C2C)NC1=O [biliverdin] | – | 3000 | –
CC(C)c1cc2c(c(O)c1O)[C@@]13CCCC(C)(C)[C@@H]1C[C@@H]2OC3=O [carnosol] | – | – | protection of the mAChR from inactivation ([1]; at 1 μM, LMW inhibitor, 3H-QNB binding, FIG. 12): 100%
O=P(O)(O)OP(=O)(O)O [pyrophosphate] | – | – | EC50 [2]: ~57000 nM; EC50 ([1]; inactivation by LMW inhibitor or heme and peroxide, loss of antagonist (3H-QNB) and agonist (3H-Oxotremorine M) binding, FIGS. 1-3, not specified further): ~1000 nM

The next lines start with results.

protection of the mAChR from inactivation by the LMW inhibitor (in words) ([1]; LMW inhibitor, 3H-QNB binding) | EC50 [1, 4] [nM] | Compound | other results
– | 400 | O=c1c(O)c(-c2cc(O)c(O)c(O)c2)oc2cc(O)cc(O)c12 [myricetin] | –
– | 240 | O=c1c(O)c(-c2ccc(O)c(O)c2)oc2cc(O)cc(O)c12 [quercetin] | –
protect the mAChR from inactivation | – | O=P(O)(O)OP(=O)(O)OP(=O)(O)O [tripolyphosphate] | –
protected the mAChR from inactivation | – | catalase | amount that provided 50% protection from inactivation by heme and peroxide [3]: 0.34 units/mL

— US9072756B2, “Methods and compositions for increasing the efficacy of an agent that directly or indirectly affects a muscarinic receptor through administration of a pyrophosphate analog” (HealthPartners Research Foundation, priority 2000, dated 2015)
